This assay has as its system Donor 4 COP T-Cell Lines. The assay can be described thus: ATP proliferation assay (CellTiter Glo), Donor 4 COP T-cell lines, incl. reactivity to non-canonical GA peptides. The format is cell-based, human. Conditions: for Non-Canonical Peptide Non-Reactivity: proliferation <2 times no antigen control; for Proliferation (luminescent ATP assay), Mean: T-cell line 205-1F4, autologous B-LCL. A general note: Cellular ATP, detected with luciferase, serves as a proxy for viable cell number.

poly (Glu-Tyr; 1:1) [GT 11]: for the setting “205-1H11”, the “Non-Canonical Peptide Non-Reactivity” value is reported as “GT 11”.
For poly (Lys-Tyr; 1:1) [LT 11], the “reactivity to non-canonical GA peptides” value (205-1F4 (sentence prints 165-1F4), Day 71, 0, 1, 3, 10 μg/mL) is listed as “showed reactivity”. Moreover, the “reactivity to non-canonical GA peptide” value (205-1F4 (sentence prints 165-1F4), Day 80, 1, 2, 5, 10 μg/mL) is listed as “showed reactivity”. For the same substance, the “response relative to the no antigen control” value is on record as 76.5 fold (205-1F4, Day 71, dose of 10 μg/mL antigen (text: Table 60)); 17.3 fold (205-1F4, Day 80, dose of 10 μg/mL antigen (Table 58)); 10.4 fold (205-1F4, text Day 80, dose of 10 μg/mL antigen (text: Table 59)). Further, the “Non-Canonical Peptide Reactivity” value (205-1F4, at least one proliferation value >=2 times no antigen control) is “LT 11”. Moreover, the “Non-Canonical Peptide Non-Reactivity” value by setting is: (205-1H3) “LT 11”; (205-1H11) “LT 11”. In addition, the “Reactive T-Cell Line” value (Donor 4 COP lines, at least a 50% increase in proliferation relative to a control after stimulation with the non-canonical GA peptide) was 205-1F4 (Donor 4). Further, the “Nonreactive T-Cell Line” value (Donor 4 COP lines, stimulation with the non-canonical GA peptide) is reported as 205-1H3 (Donor 4). Also, the “Proliferation (luminescent ATP assay), Mean” value by setting is: (Day 71, 1 μg/mL antigen) 73850; (Day 71, 3 μg/mL antigen) 154321; (Day 71, 10 μg/mL antigen) 158776; (Day 80, 1 μg/mL antigen) 3,675; (Day 80, 2 μg/mL antigen) 4,589; (Day 80, 5 μg/mL antigen) 7,626. Also, the “Proliferation (luminescent ATP assay), Mean” value (Day 80, 10 μg/mL antigen) was 8,853. Also, the “Reactivity (proliferation), Mean” value came out at 4780.3 (T-cell line 205-1H3, 1 μg/mL antigen, 0 μg/mL 4121.0); 3083.3 (T-cell line 205-1H3, 3 μg/mL antigen, 0 μg/mL 4121.0); 3381.0 (T-cell line 205-1H3, 10 μg/mL antigen, 0 μg/mL 4121.0); 5961 RLU (T-cell line 205-1H11, 1 μg/mL antigen, 0 μg/mL 6941); 6698 RLU (T-cell line 205-1H11, 10 μg/mL antigen, 0 μg/mL 6941); 4303 RLU (T-cell line 205-1H11, 30 μg/mL antigen, 0 μg/mL 6941).

For the origin of these results see patent publication US9995734B2, “Human T cell line assay for evaluating the immunologic identity of glatiramer acetate preparations” (Mylan Inc., priority 2013, dated 2018).
